{"source": "patent US20220267288A1", "about": "“CARDIAC THERAPEUTIC” (priority 2019, published 2022)", "key": {"hiPSC-CM [1]": {"test_system": "hiPSC-CM", "experiment": "Extracellular field potential duration (FPD), multi electrode array", "assay_type": "cell-based, human", "settings": "MEA, 0-10 μM", "method": "Electrophysiological perturbations of hiPSC-CM were measured using multi electrode array (MEA) recording system (Multichannel Systems, Reutlingen, Germany). […] FPD measurements were normalized (corrected FPD [cFPD]) to the beating rate of the contracting areas with the Bazzet correction formula: cFPD=FPD/√(RR interval) as described previously^3. One-phase decay algorithm was used to plot corrected FPD curves."}, "CYP3A5": {"target": "T1, CYP3A5 (Homo sapiens, UniProt P20815)", "T1 construct": "purchased BD Gentest (Woburn, Mass.)", "T1 sequence (P20815 whole entry)": "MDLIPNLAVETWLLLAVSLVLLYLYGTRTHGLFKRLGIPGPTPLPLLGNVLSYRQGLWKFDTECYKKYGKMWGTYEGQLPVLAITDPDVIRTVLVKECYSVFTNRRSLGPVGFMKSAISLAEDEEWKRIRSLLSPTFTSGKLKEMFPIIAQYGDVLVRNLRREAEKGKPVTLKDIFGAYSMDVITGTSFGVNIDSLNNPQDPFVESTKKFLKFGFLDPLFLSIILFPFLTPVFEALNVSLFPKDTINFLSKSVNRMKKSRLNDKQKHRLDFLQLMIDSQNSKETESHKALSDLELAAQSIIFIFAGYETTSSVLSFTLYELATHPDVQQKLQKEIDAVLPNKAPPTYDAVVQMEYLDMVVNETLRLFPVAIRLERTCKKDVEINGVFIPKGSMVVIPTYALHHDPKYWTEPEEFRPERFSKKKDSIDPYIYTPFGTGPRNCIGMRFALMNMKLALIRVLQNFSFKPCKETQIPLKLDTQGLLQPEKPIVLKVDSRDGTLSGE", "experiment": "Time- and concentration-dependent inactivation of CYP3A5, rivaroxaban probe", "assay_type": "in vitro ADME", "settings": "recombinant CYP3A5, pH 7.4, probe rivaroxaban (50 μM), in vitro data obtained, read-out: Mechanism-based inactivation KI CYP3A5", "method": "Incubations were conducted in triplicates in 96-well plates. Primary incubation mixtures comprising various concentrations of inhibitor (0-20 μM) were pre-incubated at 37° C. for 3 min with CYP3A4 or CYP3A5 (20 pmol/mL) and NADPH B in potassium phosphate buffer (100 mM, pH 7.4). To initiate the enzymatic reaction, 5 μL NADPH A was added to the primary incubation. The final primary incubation mixture volume was 100 μL and contained <1% v/v organic solvent. At different pre-incubation time points (3, 8, 15, 22, 30, and 45 min) after the addition of NADPH A, 5 μL aliquots of the primary incubation were transferred to 95 μL of the secondary incubation containing 50 μM rivaroxaban, the NADPH A and B, and potassium phosphate buffer (100 mM, pH 7.4) to yield a 20-fold dilution. The secondary incubation mixtures were incubated at 37° C. for 2 h with CYP3A4 or CYP3A5 before 80 μL aliquots were removed and quenched with an equal volume of ice-cold ACN containing 4 μM dexamethasone as IS. The samples were then centrifuged at 3220 g at 4° C. for 30 min before transferring the supernatant to a 96-well plate for liquid chromatography-tandem mass spectrometry (LC-MS/MS) analysis. The main rivaroxaban metabolite, morpholinone hydroxylated metabolite, was quantified using LC-MS/MS analysis. […]"}, "hiPSC-CM [2]": {"test_system": "hiPSC-CM", "experiment": "Beat-to-beat variability (BBV), Poincaré plots", "assay_type": "cell-based, human", "settings": "10 nM", "description": "The BBV calculations were done using Kubios HRV2.2 (Department of Applied Physics, University of Eastern Finland, Kuopio, Finland)^4. BBV is visualised as scatterplots known as Poincaré plots. In these plots, each time interval between two successive beats [inter-beat interval (RRn)] is plotted against the subsequent interval (RRn+1). Poincaré plot descriptors SD1 and SD2 define the extent of variability. SD1 represents a measure for short-term variability, whereas SD2 describes long-term variability^5."}, "CYP3A4": {"target": "T2, CYP3A4 (Homo sapiens, UniProt P08684)", "T2 construct": "purchased BD Gentest (Woburn, Mass.)", "T2 sequence (P08684 whole entry)": "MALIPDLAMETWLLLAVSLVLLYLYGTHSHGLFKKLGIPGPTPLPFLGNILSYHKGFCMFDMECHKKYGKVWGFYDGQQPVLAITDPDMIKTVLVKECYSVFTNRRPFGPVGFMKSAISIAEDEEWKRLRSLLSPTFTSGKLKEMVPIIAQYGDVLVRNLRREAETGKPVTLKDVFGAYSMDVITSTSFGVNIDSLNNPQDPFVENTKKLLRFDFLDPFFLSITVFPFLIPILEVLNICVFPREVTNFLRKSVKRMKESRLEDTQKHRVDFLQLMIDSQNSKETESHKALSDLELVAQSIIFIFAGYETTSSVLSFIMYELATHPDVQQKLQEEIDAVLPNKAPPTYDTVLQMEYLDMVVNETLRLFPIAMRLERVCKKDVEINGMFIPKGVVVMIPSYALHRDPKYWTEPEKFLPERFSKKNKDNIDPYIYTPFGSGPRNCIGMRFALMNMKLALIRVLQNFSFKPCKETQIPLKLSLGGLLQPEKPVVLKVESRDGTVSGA", "experiment": "Metabolic stability (substrate depletion) with CYP3A4", "assay_type": "in vitro ADME", "settings": "for elimination rate constant k by CYP3A4 / half-life at 1 μM: 1 μM substrate, CYP3A4 10 pmol/mL; for CLint (CYP3A4): PBPK parameter, in vitro data obtained; for half-life at 1 μM: human, CYP3A4 enzyme, pH 7.4, read-out: T1/2 by CYP3A4; for Intrinsic clearance, CLint CYP3A4: substrate depletion", "method": "The metabolic stability experiments were performed to derive intrinsic clearance (CLint) values via the substrate depletion method. […] NADPH A was subsequently added to initiate the reaction. […] The reaction mixtures were incubated at 37° C. with gentle agitation. At the respective time points (0-60 min), 80 μL of the reaction mixture was quenched using an equal volume of ice-cold ACN with 1 μM tamoxifen as internal standard (IS). The samples were then centrifuged at 3220 g at 4° C. for 30 min before transferring the supernatant to a 96-well plate for liquid chromatography-tandem mass spectrometry (LC-MS/MS) analysis.\nThe mean of triplicate peak area ratios for each compound was normalized to that of the same compound at the 0 min time point to obtain the percentage of substrate remaining at each time point. This was plotted against incubation time for each compound and the data was then fitted to a one-phase decay model using GraphPad Prism software (version 8.02; GraphPad Inc., San Diego, Calif.) to obtain an estimation for the elimination rate constant (k). CLint was then calculated based on equation 3:\nIn equation 3, k=elimination rate constant (min^−1); V=volume of incubation mixture (mL); P=amount of protein in mixture (mg)."}, "[3]": {"experiment": "Parallel artificial membrane permeability assay (PAMPA)", "assay_type": "in vitro ADME", "settings": "read-out: Effective permeability", "method": "The aqueous solubility of each compound was measured in universal buffer (pH 7.4) using MultiscreenHTS PCF Filter Plates. The effective permeability of each compound was measured using the parallel artificial membrane permeability assay (PAMPA)."}}, "note": "Entries after “also recorded” stand apart in the source; their conditions may differ. Marks after values point to notes of the source that are not given here.", "data": [{"smiles": "CCCCc1oc2ccc(NS(C)(=O)=O)cc2c1C(=O)c1ccc(OCCCN(CCCC)CCCC)cc1.Cl", "note": "[Dronedarone]", "values": [{"measurement": "effect on extracellular field potential duration (FPD)", "setting": "hiPSC-CM [1]", "result": "Dose-dependent increase in the FPD"}, {"measurement": "KI (inactivation)", "setting": "CYP3A5", "result": 5.37, "unit": "µM"}, {"measurement": "beat-to-beat variability (BBV), inter-beat intervals in Poincaré plot", "setting": "hiPSC-CM [2]", "result": "do not cluster at the centroid of the ellipse and diffuse across the plot"}, {"measurement": "elimination rate constant k by CYP3A4", "setting": "CYP3A4", "result": 0.04144, "unit": "min⁻¹"}, {"measurement": "CLint (CYP3A4)", "setting": "CYP3A4", "result": "114.739* μL/min/mg microsomal protein"}, {"measurement": "half-life at 1 μM", "setting": "CYP3A4", "result": 16.7, "unit": "min"}, {"measurement": "Intrinsic clearance, CLint CYP3A4", "setting": "CYP3A4", "result": 8.29, "unit": "µL/min/pmol"}, {"measurement": "Intrinsic clearance, CLint CYP3A4", "setting": "CYP3A4; listed as dronedarone", "result": 8.288, "unit": "µL/min/pmol"}, {"measurement": "Papp", "setting": "[3]", "result": "3.46 ± 0.5", "unit": "×10⁻⁶ cm/s"}]}, {"smiles": "Cl.[2H]c1c(NS(C)(=O)=O)c([2H])c2c(C(=O)c3ccc(OCCCN(CCCC)CCCC)cc3)c(CCCC)oc2c1[2H]", "note": "[Poyendarone, Methanesulfonamide, N-(2-butyl-3-(4-(3-(dibutylamino)propoxy)benzoyl)-1-benzo(4,6,7-d3)-furan-5-yl)hydrochloride]", "values": [{"measurement": "effect on extracellular field potential duration (FPD)", "setting": "hiPSC-CM [1]", "result": "Dose-dependent increase in the FPD"}, {"measurement": "KI (inactivation)", "setting": "CYP3A5", "result": 2.91, "unit": "µM"}, {"measurement": "beat-to-beat variability (BBV), inter-beat intervals in Poincaré plot", "setting": "hiPSC-CM [2]", "result": "least variability among the beats; also recorded: lack of beat-to-beat variability (BBV)"}, {"measurement": "elimination rate constant k by CYP3A4", "setting": "CYP3A4", "result": 0.0918, "unit": "min⁻¹"}, {"measurement": "CLint (CYP3A4)", "setting": "CYP3A4", "result": "115.2016* μL/min/mg microsomal protein"}, {"measurement": "half-life at 1 μM", "setting": "CYP3A4", "result": 7.55, "unit": "min"}, {"measurement": "Intrinsic clearance, CLint CYP3A4", "setting": "CYP3A4", "result": 9.18, "unit": "µL/min/pmol"}, {"measurement": "Papp", "setting": "[3]", "result": "4.08 ± 0.5", "unit": "×10⁻⁶ cm/s"}]}]}
